Laboratory results: US8192962B2, “Processes for detecting toxic substances” (Daikin Industries, Ltd., priority 2001, dated 2012)

System: DNA repair protein genes
Experiment: DNA chip mRNA expression in yeast, DNA repair protein genes (Table 3)
Format: cell-based, Saccharomyces cerevisiae S288C
Conditions: incubated two hours, concentrations as in the 1st table
Outline: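 Expression change after 2 h toxicant exposure (growth-inhibiting, sub-lethal) of log-phase S. cerevisiae S288C at 25° C. Oligo-dT-purified mRNA was labeled with Cy3-dUTP or Cy5-dUTP and hybridized >12 h at 65° C. to a genome-wide chip; ratio of scanned fluorescence to control.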

## Na2As [(1)]
Yeast gene YAL015C
  The level of expressed mRNA in the presence of chemical substance/The level of expressed mRNA in the absence of chemical substance: 1.2
Yeast gene YAR007C
  The level of expressed mRNA in the presence of chemical substance/The level of expressed mRNA in the absence of chemical substance: 0.7
Yeast gene YBL019W
  The level of expressed mRNA in the presence of chemical substance/The level of expressed mRNA in the absence of chemical substance: 0.9
Yeast gene YBR073W
  The level of expressed mRNA in the presence of chemical substance/The level of expressed mRNA in the absence of chemical substance: 0.7
Yeast gene YBR272C
  The level of expressed mRNA in the presence of chemical substance/The level of expressed mRNA in the absence of chemical substance: 0.8
Yeast gene YCR014C
  The level of expressed mRNA in the presence of chemical substance/The level of expressed mRNA in the absence of chemical substance: 0.8
Yeast gene YDL017W
  The level of expressed mRNA in the presence of chemical substance/The level of expressed mRNA in the absence of chemical substance: 0.8
Yeast gene YDL059C
  The level of expressed mRNA in the presence of chemical substance/The level of expressed mRNA in the absence of chemical substance: 2.6
Yeast gene YDL200C
  The level of expressed mRNA in the presence of chemical substance/The level of expressed mRNA in the absence of chemical substance: 1.4
Yeast gene YDR054C
  The level of expressed mRNA in the presence of chemical substance/The level of expressed mRNA in the absence of chemical substance: 1.3
Yeast gene YDR369C
  The level of expressed mRNA in the presence of chemical substance/The level of expressed mRNA in the absence of chemical substance: 1.1
Yeast gene YEL019C
  The level of expressed mRNA in the presence of chemical substance/The level of expressed mRNA in the absence of chemical substance: 1.1
Yeast gene YEL037C
  The level of expressed mRNA in the presence of chemical substance/The level of expressed mRNA in the absence of chemical substance: 0.9
Yeast gene YER162C
  The level of expressed mRNA in the presence of chemical substance/The level of expressed mRNA in the absence of chemical substance: 1.0
Yeast gene YFL014W
  The level of expressed mRNA in the presence of chemical substance/The level of expressed mRNA in the absence of chemical substance: 3.4
Yeast gene YGL058W
  The level of expressed mRNA in the presence of chemical substance/The level of expressed mRNA in the absence of chemical substance: 1.1
Yeast gene YGL091C
  The level of expressed mRNA in the presence of chemical substance/The level of expressed mRNA in the absence of chemical substance: 2.0
Yeast gene YGL127C
  The level of expressed mRNA in the presence of chemical substance/The level of expressed mRNA in the absence of chemical substance: 1.0
Yeast gene YGL163C
  The level of expressed mRNA in the presence of chemical substance/The level of expressed mRNA in the absence of chemical substance: 0.9
Yeast gene YGL249W
  The level of expressed mRNA in the presence of chemical substance/The level of expressed mRNA in the absence of chemical substance: 1.4
Yeast gene YGR180C
  The level of expressed mRNA in the presence of chemical substance/The level of expressed mRNA in the absence of chemical substance: 3.1
Yeast gene YGR231C
  The level of expressed mRNA in the presence of chemical substance/The level of expressed mRNA in the absence of chemical substance: 1.0
Yeast gene YGR258C
  The level of expressed mRNA in the presence of chemical substance/The level of expressed mRNA in the absence of chemical substance: 0.7
Yeast gene YHR164C
  The level of expressed mRNA in the presence of chemical substance/The level of expressed mRNA in the absence of chemical substance: 0.9
Yeast gene YIL036W
  The level of expressed mRNA in the presence of chemical substance/The level of expressed mRNA in the absence of chemical substance: 0.9
Yeast gene YIL072W
  The level of expressed mRNA in the presence of chemical substance/The level of expressed mRNA in the absence of chemical substance: 0.8
Yeast gene YIL143C
  The level of expressed mRNA in the presence of chemical substance/The level of expressed mRNA in the absence of chemical substance: 0.9
Yeast gene YIL153W
  The level of expressed mRNA in the presence of chemical substance/The level of expressed mRNA in the absence of chemical substance: 0.8
Yeast gene YIR002C
  The level of expressed mRNA in the presence of chemical substance/The level of expressed mRNA in the absence of chemical substance: 0.8
Yeast gene YJL026W
  The level of expressed mRNA in the presence of chemical substance/The level of expressed mRNA in the absence of chemical substance: 2.5
Yeast gene YJR046W
  The level of expressed mRNA in the presence of chemical substance/The level of expressed mRNA in the absence of chemical substance: 1.0
Yeast gene YJR052W
  The level of expressed mRNA in the presence of chemical substance/The level of expressed mRNA in the absence of chemical substance: 1.1
Yeast gene YKL145W
  The level of expressed mRNA in the presence of chemical substance/The level of expressed mRNA in the absence of chemical substance: 0.8
Yeast gene YLR103C
  The level of expressed mRNA in the presence of chemical substance/The level of expressed mRNA in the absence of chemical substance: 0.8
Yeast gene YLR233C
  The level of expressed mRNA in the presence of chemical substance/The level of expressed mRNA in the absence of chemical substance: 1.1
Yeast gene YLR288C
  The level of expressed mRNA in the presence of chemical substance/The level of expressed mRNA in the absence of chemical substance: 1.2
Yeast gene YML032C
  The level of expressed mRNA in the presence of chemical substance/The level of expressed mRNA in the absence of chemical substance: 0.8
Yeast gene YML058W
  The level of expressed mRNA in the presence of chemical substance/The level of expressed mRNA in the absence of chemical substance: 1.9
Yeast gene YMR035W
  The level of expressed mRNA in the presence of chemical substance/The level of expressed mRNA in the absence of chemical substance: 1.2
Yeast gene YMR072W
  The level of expressed mRNA in the presence of chemical substance/The level of expressed mRNA in the absence of chemical substance: 1.1
Yeast gene YMR096W
  The level of expressed mRNA in the presence of chemical substance/The level of expressed mRNA in the absence of chemical substance: 1.7
Yeast gene YMR284W
  The level of expressed mRNA in the presence of chemical substance/The level of expressed mRNA in the absence of chemical substance: 1.1
Yeast gene YNL213C
  The level of expressed mRNA in the presence of chemical substance/The level of expressed mRNA in the absence of chemical substance: 1.7
Yeast gene YNL250W
  The level of expressed mRNA in the presence of chemical substance/The level of expressed mRNA in the absence of chemical substance: 0.9
Yeast gene YNL261W
  The level of expressed mRNA in the presence of chemical substance/The level of expressed mRNA in the absence of chemical substance: 1.0
Yeast gene YNL312W
  The level of expressed mRNA in the presence of chemical substance/The level of expressed mRNA in the absence of chemical substance: 0.9
Yeast gene YOL043C
  The level of expressed mRNA in the presence of chemical substance/The level of expressed mRNA in the absence of chemical substance: 1.1
Yeast gene YOR005C
  The level of expressed mRNA in the presence of chemical substance/The level of expressed mRNA in the absence of chemical substance: 1.2
Yeast gene YOR386W
  The level of expressed mRNA in the presence of chemical substance/The level of expressed mRNA in the absence of chemical substance: 1.0
Yeast gene YPL022W
  The level of expressed mRNA in the presence of chemical substance/The level of expressed mRNA in the absence of chemical substance: 0.7
Yeast gene YPL164C
  The level of expressed mRNA in the presence of chemical substance/The level of expressed mRNA in the absence of chemical substance: 1.1
Yeast gene YPL194W
  The level of expressed mRNA in the presence of chemical substance/The level of expressed mRNA in the absence of chemical substance: 0.9
Yeast gene YPR025C
  The level of expressed mRNA in the presence of chemical substance/The level of expressed mRNA in the absence of chemical substance: 1.1
